Measured values taken from publication PMC9122897, “SHR1032, a novel STING agonist, stimulates anti-tumor immunity and directly induces AML apoptosis” (Scientific Reports, 2022).
pEC50: −log10 of the molar value.

Columns and labels:
MOLM-16 cells = assay: Annexin V staining by flow cytometry; format: cell-based, human; settings: MOLM-16, 16 h; compared to cytarabine
Experimental: (§1) Figure 5 Cell apoptosis induced by SHR1032 in AML cell lines is independent of type I interferon. (a–d) RNA-Seq analysis of THP1-STING-R232, THP1-STING-KO and MV4-11 AML cells treated with 1 µM of SHR1032 for 4 h. […] (d) ANNEXIN V staining analysis with flow cytometry in MV4-11, MOLM-16, THP1-STING-WT and THP1-STING-KO cells. (e) Cell viability analysis by CellTiter Glo in THP1-IRFAR2-WT or -KO cells.
(§2) Cells were incubated with compounds or DMSO for 16 h in a 6-well plate (0.5 × 10^6 cells/well in 2 ml of media). After incubation, cells were collected and washed once in stain buffer (BD Biosciences). Samples were stained with FITC_Annexin V (BioLegend) for 15 min at room temperature. Then the cells were washed twice and resuspended in 200 µl stain buffer, and analyzed with Guava EasyCyte (Millipore).

THP1-STING-KO cells = assay: Annexin V staining by flow cytometry; format: cell-based, human; settings: 16 h
Experimental: as §1, §2

THP1-STING-WT cells = assay: Annexin V staining by flow cytometry; format: cell-based, human; settings: 16 h, compared to cytarabine
Experimental: as §1, §2

MV4-11 cells = assay: Annexin V staining by flow cytometry; format: cell-based, human; settings: MV4-11, 16 h; compared to cytarabine
Experimental: as §1, §2

THP1 reporter cells = assay: THP1 IRF luciferase reporter assay; format: cell-based; settings: Homo sapiens, THP-1; IRF Lucia luciferase reporter, 24 h; read-out: THP1 reporter cell EC50
Source text: We sought to develop small molecule compounds with increased STING agonist activity against human STING. GSK reported a series of non-CDN small molecules, represented by compound 1[13], with good human STING agonistic activity. Based on our molecular modeling analysis, along with the reported CDN-STING crystal structures, we designed a novel series of fused tricyclic heterocycle compounds and analyzed their binding to human STING with thermal shift assays and the potency in activation of STING signaling with a reporter cellular assay (Supplementary Table S1). Thermal shift assays measure the difference between apo STING and ligand bound STING in the inflection point at which 50% of protein is thermally unfolded (ΔTm). […] The ability of compounds to activate the IRF reporter gene in the THP1 cells was also evaluated.
(§3) THP1 reporter cells were treated for 24 h with a total of 100 k cells and 150 ul media in each well a 96-well plate. […] Luminescence signal was measured using Tecan infinite M1000. EC50 values were calculated using non-linear regression analysis of GraphPad Prism. Cell growth was monitored by CellTiter-Glo Luminescent Cell Viability Assay (Promega) per manufacture’s protocol. GI50 values were calculated using non-linear regression analysis of GraphPad Prism. […]

[1] = tested on: mouse RAW164.7 macrophage cells; assay: Western blot of TBK1 phosphorylation; format: cell-based; settings: 10 µM SHR1032 vs 40 µM ADU-S100
Experimental: (§4) Figure 2 SHR1032 specifically and potently activates STING signaling pathway. IRF luciferase reporter assays in (a) THP1-STING-R232, THP1-STING-H232, THP1-STING-HAQ, and THP1-STING-KO cells. Cells were stimulated for 24 h with the indicated STING compounds and assessed for luciferase activity. IFNβ production and activation of cGAS-STING signaling pathway in (b) human THP1-STING-R232, human PBMCs from a donor homozygous for the R232 variant, cynomolgus PBMC, and mouse RAW164.7 macrophage cells were treated with STING agonists for 5 h. IFNβ in media was quantified by human or mouse ELISA kits respectively. (c) THP1-STING-R232 cells and mouse RAW164.7 macrophage cells were stimulated with 40 µM of ADU-S100 or 10 µM of SHR1032 for the indicated time points. The amount of pTBK1, total TBK1, STING and α-tubulin was measured by western blotting.
as §3

cynomolgus PBMC = assay: IFNβ ELISA; format: cell-based, cynomolgus monkey; settings: 5 h, vs ADU-S100
Experimental: as §4
Human and Cynomolgous PBMC’s were thawed and spun down in Lymphocyte media (ZENBIO) and resuspended in media to 1.5 x 10^6 cells/ml density. […] Human and monkey IFN-β protein concentration was measured using human IFN-β Quantikine ELISA Kits (R&D Systems) per manufacture’s protocol. Mouse IFN-β was measured using mouse IFN-β Quantikine ELISA Kits (R&D Systems) per manufacture’s protocol. Mouse TNFα, IFN-β and IL-6 in the tumor lysates and plasma was measured by Quantikine ELISA Kits (R&D Systems) per manufacture’s protocol.

In the case of CCn1nc(C)cc1C(=O)Nc1nc2cc(C(N)=O)cc(OC)c2n1CCC[C@H]1COc2cc(C(N)=O)cc3nc(NC(=O)c4cc(C)nn4CC)n1c23 [SHR1032], the “apoptosis (Annexin V)” value (MOLM-16 cells) was “much higher level of apoptosis”, the “apoptosis (Annexin V)” value (THP1-STING-KO cells) was “no effect” and the “apoptosis (Annexin V)” value (THP1-STING-WT cells) was “comparable level of apoptosis”. For the same compound, the “apoptosis (Annexin V)” value (MV4-11 cells) was “much higher level of apoptosis”, the pEC50 (THP1 reporter cells) was 7.52 and the TBK1 phosphorylation [1] was “lower”. The “monkey IFNβ production” value (cynomolgus PBMC) was “lower than that with that of ADU-S100, but still detectable”.
